Measured values taken from US12358918B2, “Aryl hydrocarbon receptor (AHR) activator compounds as cancer therapeutics” (THE BROAD INSTITUTE, INC., priority 2018, dated 2025).

Tests used:
[1] = tested on: MDA-MB-231 breast cancer cell lines; test: cytotoxicity, control cells vs cells overexpressing CYP1A1; type: cell-based
Text: The dependence of each compound's cytotoxic effects upon CYP1A1 was also examined, via screening of MDA-MB-231 breast cancer cell lines for cytotoxic response. The CYP1A1-dependence of the cytotoxic response of to each tested compound was specifically determined by comparing the cytotoxicity of each compound administered to control cells with that of the compound administered to corresponding cells that overexpressed CYP1A1. […]

[2] = tested on: MDA-MB-468 and ZR51 breast cancer and JHH7 liver cancer cell lines

Structure (SMILES) | CYP1A1-dependence of the cytotoxic response [1] | AHR-dependence of the cytotoxic response [2]
Nc1nc2ccc(Br)cc2c2nc(-c3ccco3)nn12 [A14] | CYP1A1-dependent cytotoxic | dependence upon AHR
COc1ccc2nc(N)n3nc(-c4ccco4)nc3c2c1 [A15] | CYP1A1-dependent cytotoxic | dependence upon AHR
Nc1nc2ccc(F)cc2c2nc(-c3ccco3)nn12 [BRO-023, 9-fluoro-2-(furan-2-yl)-[1,2,4]triazolo[1,5-c]quinazolin-5-amine] | CYP1A1-dependent cytotoxic | dependence upon AHR
Nc1nc2cccc(F)c2c2nc(-c3ccco3)nn12 [A17] | CYP1A1-dependent cytotoxic | dependence upon AHR
O=c1[nH]c2ccc(Cl)c(Cl)c2c2nc(-c3ccco3)nn12 [A1] | CYP1A1-dependent cytotoxic | dependence upon AHR
c1ccc(-c2n[nH]c3c2oc2ccccc23)cc1 [GTP 14564, reference compound] | CYP1A1-dependent cytotoxic | dependence upon AHR
Nc1nc2cccc(Cl)c2c2nc(-c3ccco3)nn12 [BRO-027, 10-chloro-2-(furan-2-yl)-[1,2,4]triazolo[1,5-c]quinazolin-5-amine] | CYP1A1-dependent cytotoxic | dependence upon AHR
O=Cc1c2[nH]c3ccccc3c2cc2[nH]c3ccccc3c12 [FICZ, reference compound] | CYP1A1-dependent cytotoxic | dependence upon AHR
Cc1ccc(-c2nc3c4ccccc4nc(C)n3n2)o1 [B5] | CYP1A1-dependent cytotoxic | dependence upon AHR
Nc1nc2ccc(C(F)(F)F)cc2c2nc(-c3ccco3)nn12 [BRO-024, 2-(furan-2-yl)-9-(trifluoromethyl)-[1,2,4]triazolo[1,5-c]quinazolin-5-amine] | CYP1A1-dependent cytotoxic | dependence upon AHR
CSc1nc2ccccc2c2nc(-c3ccco3)nn12 [2-(2-furyl)-5-(methylsulfanyl)[1,2,4]triazolo[1,5-c]quinazoline] | CYP1A1-dependent cytotoxic | dependence upon AHR
O=C1NC(=O)c2c1c1c3ccccc3[nH]c1c1[nH]c3ccccc3c21 [Arcyriaflavin A, reference compound] | CYP1A1-dependent cytotoxic | dependence upon AHR
Nc1nc2cccc(C(F)(F)F)c2c2nc(-c3ccco3)nn12 [A2] | CYP1A1-dependent cytotoxic | dependence upon AHR
O=c1[nH]c2ccccc2c2nc(-c3ccco3)nn12 [2-(2-furyl)[1,2,4]triazolo[1,5-c]quinazolin-5(6H)-one] | CYP1A1-dependent cytotoxic | dependence upon AHR
c1coc(-c2nc3c4ccccc4ncn3n2)c1 [2-(2-furyl)[1,2,4]triazolo[1,5-c]quinazoline] | CYP1A1-dependent cytotoxic | dependence upon AHR
Sc1nc2ccccc2c2nc(-c3ccco3)nn12 [2-(2-furyl)[1,2,4]triazolo[1,5-c]quinazolin-5-yl hydrosulfide] | CYP1A1-dependent cytotoxic | dependence upon AHR
Cc1nc2cccc(Cl)c2c2nc(-c3ccco3)nn12 [B1] | CYP1A1-dependent cytotoxic | dependence upon AHR
Nc1nc2cc(Cl)ccc2c2nc(-c3ccco3)nn12 [BRO-026, 8-chloro-2-(furan-2-yl)-[1,2,4]triazolo[1,5-c]quinazolin-5-amine] | CYP1A1-dependent cytotoxic | dependence upon AHR
